This experiment has as its system acetylated tubulin (Lys40) in HeLa cells. Briefly: Acetylated α-tubulin measurement in vitro (immunocytochemistry). The format is cell-based. To be noted: Homo sapiens, 6 hours incubation, acetylated tubulin (Lys40) by immunocytochemistry, read-out: IC50 (Tubulin deacetylation). The essentials:
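HeLa cells in serum-free medium treated 6 h at 37 °C (final DMSO 0.1–0.4%), then PFA-fixed and immunostained for acetyl-Lys40 and total α-tubulin; high-content imaging.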
`Cn1ncc2c(SCC(=O)c3ccc(CNC(=O)CO)s3)ncnc21` [Example 59, 2-hydroxy-N-((5-(2-((1-methyl-1H-pyrazolo[3,4-d]pyrimidin-4-yl)thio)acetyl)thiophen-2-yl)methyl)acetamide]: the IC50 is 100 to 500 nM.

As for `Cc1nc(SCC(=O)c2ccc(CNC(=O)CO)s2)c2cc(F)ccc2n1` [Example 67, N-((5-(2-((6-fluoro-2-methylquinazolin-4-yl)thio)acetyl)thiophen-2-yl)methyl)-2-hydroxyacetamide], the IC50 lay in the range of 100 to 500 nM.

In the case of `COc1ccc2nc(C)nc(SCC(=O)c3ccc(CNC(=O)C4CC4(F)F)s3)c2c1` (stereo not drawn) [Example 39, 2,2-difluoro-N-((5-(2-((6-methoxy-2-methylquinazolin-4-yl)thio)acetyl)thiophen-2-yl)methyl)cyclopropane-1-carboxamide], the IC50 is 500 to 1000 nM.

With `O=C(CSc1nc2nc(C(F)(F)F)ccc2o1)c1ccc(CNC(=O)C2(O)CC2)s1` [Example 45, 1-hydroxy-N-((5-(2-((5-(trifluoromethyl)oxazolo[4,5-b]157yrrolid-2-yl)thio)acetyl)thiophen-2-yl)methyl)cyclopropane-1-carboxamide], the IC50 was not above 100 nM.

For `COc1ccc2nc(C)nc(SCC(=O)c3ccc(CNC(=O)[C@@H](C)O)s3)c2c1` [Example 186, (R)-2-hydroxy-N-((5-(2-((6-methoxy-2-methylquinazolin-4-yl)thio)acetyl)thiophen-2-yl)methyl)propanamide], the IC50 was not above 100 nM.

In the case of `CCOc1ccc2nc(C)nc(SCC(=O)c3ccc(CNC(=O)CO)s3)c2c1` [Example 144, N-((5-(2-((6-ethoxy-2-methylquinazolin-4-yl)thio)acetyl)thiophen-2-yl)methyl)-2-hydroxyacetamide], the IC50 is not above 100 nM.

`Cn1cc2c(SCC(=O)c3ccc(CNC(=O)C(O)C(F)(F)F)s3)nc(C(F)(F)F)nc2n1` (stereo not drawn) [Example 46, 3,3,3-trifluoro-2-hydroxy-N-((5-(2-((2-methyl-6-(trifluoromethyl)-2H-pyrazolo[3,4-d]pyrimidin-4-yl)thio)acetyl)thiophen-2-yl)methyl)propanamide]: the IC50 fell in the range of 100 to 500 nM.

With `O=C(CO)NCc1ccc(C(=O)CSc2nc(C(F)(F)F)nc3cc(C4CC4)nn23)s1` [Example 112, N-((5-(2-((7-cyclopropyl-2-(trifluoromethyl)pyrazolo[1,5-a][1,3,5]triazin-4-yl)thio)acetyl)thiophen-2-yl)methyl)-2-hydroxyacetamide], the IC50 fell in the range of 100 to 500 nM.

As for `Cc1nc(SCC(=O)c2ccc(CNC(=O)CO)s2)c2cccnc2n1` [Example 64, 2-hydroxy-N-((5-(2-((2-methylpyrido[2,3-d]pyrimidin-4-yl)thio)acetyl)thiophen-2-yl)methyl)acetamide], the IC50 was not above 100 nM.

Turning to `CC(C)(C)C(=O)NCc1ccc(C(=O)CSc2nc(C(F)F)nc3ccccc23)s1` [Example 19, N-((5-(2-((2-(difluoromethyl)quinazolin-4-yl)thio)acetyl)thiophen-2-yl)methyl)pivalamide], the IC50 lay in the range of 1000 to 3330 nM.

`O=C(CO)NCc1ccc(C(=O)CSc2nc3nc(C(F)(F)F)ccc3o2)s1` [Example 72, 2-hydroxy-N-((5-(2-((5-(trifluoromethyl)oxazolo[4,5-b]156yrrolid-2-yl)thio)acetyl)thiophen-2-yl)methyl)acetamide]: the IC50 is not above 100 nM.

`COc1ccc2c(SCC(=O)c3ccc(CNC(=O)C(C)(C)C)s3)nc(C)nc2c1` [Example 12, N-((5-(2-((7-methoxy-2-methylquinazolin-4-yl)thio)acetyl)thiophen-2-yl)methyl)pivalamide]: the IC50 is 1000 to 3330 nM.

As to `O=C(CSc1nc(C(F)(F)F)nc2ccc(N3CCOCC3)cc12)c1ccc(CNC(=O)C2(O)CC2)s1` [Example 47, 1-hydroxy-N-((5-(2-((6-morpholino-2-(trifluoromethyl)quinazolin-4-yl)thio)acetyl)thiophen-2-yl)methyl)cyclopropane-1-carboxamide], the IC50 lay within 100 to 500 nM.

In the case of `CC(C)(C)C(=O)NCc1ccc(C(=O)CSc2nc(C(F)(F)F)nc3ccccc23)s1` [Example 38, N-((5-(2-((2-(trifluoromethyl)quinazolin-4-yl)thio)acetyl)thiophen-2-yl)methyl)pivalamide], the IC50 is 500 to 1000 nM.

For the molecule `COc1ccc2nc(C)nc(SCC(=O)c3ccc(CNC(=O)C(F)F)s3)c2c1` [Example 172, 2,2-difluoro-N-((5-(2-((6-methoxy-2-methylquinazolin-4-yl)thio)acetyl)thiophen-2-yl)methyl)acetamide], the IC50 is 100 to 500 nM.

As to `Cc1nc(SCC(=O)c2ccc(CNC(=O)CO)s2)c2cc(C(F)(F)F)cnc2n1` [Example 119, 2-hydroxy-N-((5-(2-((2-methyl-6-(trifluoromethyl)pyrido[2,3-d]pyrimidin-4-yl)thio)acetyl)thiophen-2-yl)methyl)acetamide], the IC50 was not above 100 nM.

Regarding `CCn1cc2c(SCC(=O)c3ccc(CNC(=O)CO)s3)nc(C(F)(F)F)nc2n1` [Example 135, N-((5-(2-((2-ethyl-6-(trifluoromethyl)-2H-pyrazolo[3,4-d]pyrimidin-4-yl)thio)acetyl)thiophen-2-yl)methyl)-2-hydroxyacetamide], the IC50 was not above 100 nM.

Turning to `O=C(CSc1nc(C(F)(F)F)nc2ncccc12)c1ccc(CNS(=O)(=O)C2CC2)s1` [Example 122, N-((5-(2-((2-(trifluoromethyl)pyrido[2,3-d]pyrimidin-4-yl)thio)acetyl)thiophen-2-yl)methyl)cyclopropanesulfonamide], the IC50 is 100 to 500 nM.

Regarding `COc1cnc2nc(C(F)F)nc(SCC(=O)c3ccc(CNC(=O)CO)s3)c2c1` [Example 164, N-((5-(2-((2-(difluoromethyl)-6-methoxypyrido[2,3-d]pyrimidin-4-yl)thio)acetyl)thiophen-2-yl)methyl)-2-hydroxyacetamide], the IC50 is not above 100 nM.

In the case of `Cc1nc(SCC(=O)c2ccc(CNC(=O)CO)s2)c2cc(C(F)(F)F)cc(N(C)C)c2n1` [Example 150, N-((5-(2-((8-(dimethylamino)-2-methyl-6-(trifluoromethyl)quinazolin-4-yl)thio)acetyl)thiophen-2-yl)methyl)-2-hydroxyacetamide], the IC50 is 100 to 500 nM.

Take `O=C(CO)NCc1ccc(C(=O)CSc2nc(C(F)(F)F)nc3cccnc23)s1` [Example 152, 2-hydroxy-N-((5-(2-((2-(trifluoromethyl)pyrido[3,2-d]pyrimidin-4-yl)thio)acetyl)thiophen-2-yl)methyl)acetamide]: the IC50 is not above 100 nM.

Consider `Cn1ncc2c(SCC(=O)c3ccc(CNC(=O)C(C)(C)C)s3)nc(C(F)F)nc21` [Example 21, N-((5-(2-((6-(difluoromethyl)-1-methyl-1H-pyrazolo[3,4-d]pyrimidin-4-yl)thio)acetyl)thiophen-2-yl)methyl)pivalamide], for which the IC50 was 1000 to 3330 nM.

Consider `Cc1nc(SCC(=O)c2ccc(CNC(=O)CO)s2)c2cc(N3CCN(C)CC3)ccc2n1` [Example 85, 2-hydroxy-N-((5-(2-((2-methyl-6-(4-methylpiperazin-1-yl)quinazolin-4-yl)thio)acetyl)thiophen-2-yl)methyl)acetamide], for which the IC50 is not above 100 nM.

As for `Cn1ncc2c(SCC(=O)c3ccc(CNC(=O)c4ccccc4)s3)ncnc21` [Example 30, N-((5-(2-((1-methyl-1H-pyrazolo[3,4-d]pyrimidin-4-yl)thio)acetyl)thiophen-2-yl)methyl)benzamide], the IC50 lay in the range of 1000 to 3330 nM.

As to `COc1ccc2nc(C)nc(SCC(=O)c3ccc(CNC(=O)C(F)(F)C(F)(F)F)s3)c2c1` [Example 40, 2,2,3,3,3-pentafluoro-N-((5-(2-((6-methoxy-2-methylquinazolin-4-yl)thio)acetyl)thiophen-2-yl)methyl)propanamide], the IC50 is 500 to 1000 nM.

Consider `Cn1cc2c(SCC(=O)c3ccc(CNC(=O)C(C)(C)O)s3)nc(C(F)(F)F)nc2n1` [Example 48, 2-hydroxy-2-methyl-N-((5-(2-((2-methyl-6-(trifluoromethyl)-2H-pyrazolo[3,4-d]pyrimidin-4-yl)thio)acetyl)thiophen-2-yl)methyl)propanamide], for which the IC50 is 100 to 500 nM.

For `Cc1nc(SCC(=O)c2ccc(CNC(=O)C(C)(C)C)s2)c2cnn(C)c2n1` [Example 5, N-((5-(2-((1,6-dimethyl-1H-pyrazolo[3,4-d]pyrimidin-4-yl)thio)acetyl)thiophen-2-yl)methyl)pivalamide], the IC50 is more than 3330 nM.

Take `COc1cc2c(SCC(=O)c3ccc(CNC(=O)CO)s3)nc(C(F)(F)F)nc2cn1` [Example 154, 2-hydroxy-N-((5-(2-((6-methoxy-2-(trifluoromethyl)pyrido[3,4-d]pyrimidin-4-yl)thio)acetyl)thiophen-2-yl)methyl)acetamide]: the IC50 was not above 100 nM.

Take `Cc1nc(SCC(=O)c2ccc(CNC(=O)CO)s2)c2ccc(F)cc2n1` [Example 68, N-((5-(2-((7-fluoro-2-methylquinazolin-4-yl)thio)acetyl)thiophen-2-yl)methyl)-2-hydroxyacetamide]: the IC50 fell in the range of 100 to 500 nM.

In the case of `Cn1ncc2c(SCC(=O)c3ccc(CNC(=O)CO)s3)nc(C(F)(F)F)nc21` [Example 74, 2-hydroxy-N-((5-(2-((1-methyl-6-(trifluoromethyl)-1H-pyrazolo[3,4-d]pyrimidin-4-yl)thio)acetyl)thiophen-2-yl)methyl)acetamide], the IC50 is 100 to 500 nM.

Regarding `Cc1ccc2oc(SCC(=O)c3ccc(CNC(=O)C(C)(C)C)s3)nc2n1` [Example 23, N-((5-(2-((5-methyloxazolo[4,5-b]pyridine-2-yl)thio)acetyl)thiophen-2-yl)methyl)pivalamide], the IC50 fell in the range of 500 to 1000 nM.

With `COc1cccc2nc(C)nc(SCC(=O)c3ccc(CNC(=O)CO)s3)c12` [Example 143, 2-hydroxy-N-((5-(2-((5-methoxy-2-methylquinazolin-4-yl)thio)acetyl)thiophen-2-yl)methyl)acetamide], the IC50 fell in the range of 100 to 500 nM.

Take `Cn1ncc2c(SCC(=O)c3ccc(C4CCN(C(=O)CO)C4)s3)ncnc21` (stereo not drawn) [Example 86, 2-hydroxy-1-(3-(5-(2-((1-methyl-1H-pyrazolo[3,4-d]pyrimidin-4-yl)thio)acetyl)thiophen-2-yl)157yrrolidine-1-yl)ethan-1-one]: the IC50 fell in the range of 1000 to 3330 nM.

The term IC50 denotes the concentration needed to halve the response being measured.

These data come from patent US12421222B2 (AUGUSTINE THERAPEUTICS, priority 2021, dated 2025).
